Here are results for six compounds from article PMC11647907 (Journal of Medicinal Chemistry, 2024).

The test system of data set [1] is HL60 cells. Nature of the data set: Mitochondrial membrane potential. The format is cell-based. As to conditions: HL60, 10 nM, 48 h, vs DMSO group.
Data set [2] concerns HL60 cells. Nature of the data set: HL60-disseminated leukemia model, survival. The format is in vivo, NSG mice.
The nature of data set [3]: Liver microsomal stability, human. It counts as in vitro ADME. As to conditions: human liver microsomes. On the technique in general: Microsomes from liver hold many membrane-bound enzymes, among them those of drug oxidation.
For data set [4], the system named is HL60 cells. Kind of data set: Mitochondrial ROS. It counts as cell-based. As to conditions: HL60, 5 nM, 38 h, vs DMSO group.
Data set [5] relates to MOLM13 cells. Kind of data set: MOLM13-disseminated leukemia model, survival. It counts as in vivo, NSG mice. The following applies: 10 mg/kg, p.o, qd, 18 days.
Data set [6] has as its system MOLM13 cells. Nature of the data set: Cell cycle analysis. As to conditions: MOLM13, 24 h. The format is cell-based.
The target in data set [7] is T1, ClpP (Homo sapiens, UniProt Q16740). Nature of the data set: In vitro enzyme assay: ClpP peptidase activity with AC-WLA-AMC. The format is biochemical. The following applies: for EC50: EC50 (ClpP proteolytic activity), mean ± SD, n = 3.
T1 sequence (Q16740 57-277): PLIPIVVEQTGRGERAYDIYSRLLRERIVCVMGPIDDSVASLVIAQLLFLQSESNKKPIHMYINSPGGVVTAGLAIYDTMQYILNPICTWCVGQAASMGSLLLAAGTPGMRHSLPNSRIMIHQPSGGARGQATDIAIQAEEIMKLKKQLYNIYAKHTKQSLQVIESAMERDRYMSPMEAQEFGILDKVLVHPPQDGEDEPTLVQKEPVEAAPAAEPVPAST
Data set [8] deals with SDHB and NDUFA12 in MOLM13 cells. Kind of data set: Western blotting of respiratory chain proteins, MOLM13. The format is cell-based. As to conditions: 36 h.
The next data set is described as follows: PK study, oral 50 mg/kg. The format is in vivo, ICR mice.
In the next data set the target is ClpP in HL60 cells (Homo sapiens, UniProt Q16740). Nature of the data set: Cellular thermal shift assay. The format is cell-based. As to conditions: 10 μM, 6 h, vs control group.
Sequence of ClpP in HL60 cells (Q16740 57-277): as above
Data set [9] has as its target T1, ClpP. Kind of data set: Biolayer interferometry. It counts as binding. A general note: BLI is a label-free optical method that tracks binding on a fibre tip over time.
The next data set concerns the target ClpP in MOLM13 cells (Homo sapiens, UniProt Q16740). Nature of the data set: Cellular thermal shift assay. The format is cell-based. The following applies: 10 μM, 6 h, vs control group.
Data set [10] has as its system MOLM13 cells. Kind of data set: Mitochondrial membrane potential. The format is cell-based. As to conditions: MOLM13, 10 nM, 48 h, vs DMSO group.
For data set [11], the system named is MOLM13 cells. Kind of data set: Mitochondrial ROS. It counts as cell-based. The following applies: MOLM13, 38 h.
Data set [12] is described as follows: Liver microsomal stability, rat. The format is in vitro ADME. As to conditions: rat liver microsomes.
The test system of data set [13] is SDHB and NDUFA12 in HL60 cells. Nature of the data set: Western blotting of respiratory chain proteins, HL60. It counts as cell-based. As to conditions: 36 h. A general note: A western blot detects proteins with antibodies after separation by electrophoresis.
Data set [14] has as its system HL60 cells. Nature of the data set: Cell cycle analysis. The format is cell-based. As to conditions: 24 h.
In data set [15] the test system is HL60 cells. Nature of the data set: Growth inhibition assay. It counts as cell-based.
Data set [16] can be described thus: Liver microsomal stability, mice. It counts as in vitro ADME.
Setting [17] is: female, ICR, mouse, plasma, po, 50 mg/kg.

Sequence of ClpP in MOLM13 cells (Q16740 57-277): as above

As a reminder, the half-life is how long it takes for the measured level to halve. Low values mean rapid decline, high ones slow decline. By AUC(0-inf) is commonly meant total exposure, with the tail of the curve extrapolated. By AUC(0-t) is commonly meant the area under the concentration-time curve up to a stated or last time point. Low values mean less exposure, high ones more exposure. The term Cmax denotes the highest concentration seen after dosing. One may read the MRT as the average time that molecules of a dose stay in the body. The Tmax is the time at which the peak concentration occurs. What is called Kd is the constant that tells how readily two partners part at equilibrium. A lower Kd goes with a tighter complex. For orientation: IC50 means the point on the concentration scale where inhibition reaches its midpoint. `C[C@@H]1CC2=C(CN1Cc1cccc(C#N)c1)C(=O)N(Cc1ccc(Br)cc1)C1=NCCN12` [CLPP-1071, (R)-3-((4-(4-Bromobenzyl)-8-methyl-5-oxo-1,2,4,5,8,9-hexahydroimidazo[1,2-a]pyrido[3,4-e]pyrimidin-7(6H)-yl)methyl)benzonitrile]: the “mitochondrial membrane potential (MMP)” value in the data set with HL60 cells [1] and in the data set on MOLM13 cells [10] was “significantly decreased MMP” throughout. The “survival of female NSG mice” value is “dose-dependently extended the survival” in the data set on HL60 cells [2] (HL60 model, 5 and 10 mg/kg, p.o, qd, 19 days); “extended the survival” in the data set on MOLM13 cells [5]. In addition, the “survival periods in mice” value in the data set on HL60 cells [2] (disseminated model, 5 mg/kg, stronger effects compared to 10 mg/kg ONC212) is given as “significantly prolonged survival periods”. Besides, the “Clapp” value in data set [3] turned out to be 296 mL/min/kg; in data set [12], 906 mL/min/kg. The “Clh” value is recorded as 19.3 mL/min/kg in data set [3] and 52.0 mL/min/kg in data set [12]. Moreover, the “Eh (%)” value in [3] was found to be 93.5%; in [12] it was 94.3%. For the same compound, the half-life in data set [3] is 13.7 min; in the data set “PK study, oral 50 mg/kg” (setting [17]) it was 87 ± 19.8 min; in data set [12] it was 6.89 min. Moreover, the ROS accumulation result in the data set with HL60 cells [4] is “pronounced elevation in ROS accumulation”. For the same compound, the “percentage of cells arrested in G1” value was 73% in the data set on MOLM13 cells [6] (higher dose (dose not given)); 65% with MOLM13 cells [6] (lower dose (dose not given)); 50% in the data set on HL60 cells [14] (HL60, 10 nM); 60% with HL60 cells [14] (HL60, 100 nM). Moreover, at ClpP [7], the EC50 was determined as 23.5 nM. Besides, the “ClpP agonistic activity, fold stronger than ONC201” value on ClpP [7] (vs ONC201) was determined as 107.1 fold. For the same compound, the “SDHB and NDUFA12 protein levels” value in data set [8] (MOLM13, 1 nM) was “decreased”; in [8] (MOLM13, 10 nM) it was “mostly disappeared”; in data set [13] (HL60, 1 nM), “decreased”; in data set [13] (HL60, 10 nM) it was “mostly disappeared”. Also, in “PK study, oral 50 mg/kg” (PO 50 mg/kg, mice), the “AUC0–∞, times higher than that of ONC212” value is reported as “approximately 1.5 times”. The compound also displayed an AUC(0-inf) in “PK study, oral 50 mg/kg” (setting [17]) of 9840 ± 990 ng·h/mL. Besides, the AUC(0-t) in the data set “PK study, oral 50 mg/kg” (setting [17]) came to 9010 ± 1320 ng·h/mL. Moreover, the Cmax in the data set “PK study, oral 50 mg/kg” (setting [17]) was 3420 ± 570 ng/mL. This compound also returned an MRT in “PK study, oral 50 mg/kg” (setting [17]) of 157 ± 24.6 min. In addition, in the data set “PK study, oral 50 mg/kg” (setting [17]), the time of peak concentration (Tmax) amounted to 30 ± 25.8 min. The “thermal stability of ClpP (CETSA)” value at ClpP in HL60 cells and on ClpP in MOLM13 cells was “effectively stabilized ClpP protein at higher temperatures” each time. The same compound displayed a dissociation constant Kd on ClpP [9] of 26.9 nM. The ROS levels entry with MOLM13 cells [11] was “significant increase in the ROS levels”. The IC50 in the data set on HL60 cells [15] (read-out: HL60 IC50, HL60 cells, 72 h, mean ± SD, n = 3, listed as 52a) was 4.61 ± 0.21 nM. Besides, the “inhibition of proliferation of HL60 cells, fold stronger than ONC201” value in the data set with HL60 cells [15] (vs ONC201) stood at 169.2 fold.
On ClpP [7], `CC(c1ccccc1)N1CCC2=C(C1)C(=O)N(Cc1ccc(C(F)(F)F)cc1)C1=NCCN12` (stereo not shown) [compound 2] had an EC50 of 193 ± 18.9 nM.
The compound `CC(c1ccc(C(F)(F)F)cc1)N1C(=O)C2=C(CCN(Cc3ccccc3)C2)N2CCN=C21` (stereo not shown) [compound 3] showed an EC50 on ClpP [7] of 2659 ± 11.7 nM.
The same measure, in the same setting: as for `CC1CN(Cc2ccccc2)CC2=C1N1CCN=C1N(Cc1ccc(C(F)(F)F)cc1)C2=O` (stereo not shown) [compound 4], the figure is 1410 ± 20.5 nM.
Consider `CC1(C)CN(Cc2ccccc2)CC2=C1N1CCN=C1N(Cc1ccc(C(F)(F)F)cc1)C2=O` [compound 5], for which the EC50 at ClpP [7] worked out at 1650 ± 84.5 nM.
As for `C[C@]12CC[C@H]3[C@@H](CCC4=CC(=O)CC[C@@]43C)[C@@H]1CC[C@@H]2O` [testosterone, reference compound], the entries for the “Clapp” value in data set [3], in data set [12] and in data set [16] (mice liver microsomes) were 467 mL/min/kg, 8634 mL/min/kg and 8634 mL/min/kg, respectively. In addition, the entries for the “Clh” value in data set [3], in data set [12] and in data set [16] (mice liver microsomes) were 19.8 mL/min/kg, 54.8 mL/min/kg and 54.8 mL/min/kg, respectively. Also, the entries for the “Eh (%)” value in data set [3], in [12] and in data set [16] (mice liver microsomes) were 95.8%, 99.4% and 99.4%, respectively. In addition, the half-life in [12] stood at 0.723 min; in data set [16] (mouse, liver microsomes) it was 0.723 min.
